Series [1] relates to houseflies (Musca domestica). Nature of the series: Mortality test with houseflies by topical application method. The following applies: 24 h; for mortality at 0.001 mg: read-out: Pesticidal effect, housefly.
Series [2] relates to green rice leafhoppers (Nephotettix cincticeps Uhler). Nature of the series: Mortality test with green rice leafhoppers by topical application method. The following applies: for mortality at 0.01 µg/female / mortality at 0.1 µg/female / mortality at 1 µg/female / LD50 / mortality at 10 ng: Nephotettix cincticeps, in Oryza sativa, 24 h; for LD50: read-out: LD50 (median lethal dose), topical, green rice leafhoppers; for mortality at 10 ng: read-out: Pesticidal effect, green rice leafhopper. The procedure:
Mortality test with green rice leafhoppers (Nephotettix cincticeps Uhler) by topical application method
Then, the insects were kept at 25° C. with access to rice plant seedlings. The insects were used in groups of 15 individuals each.

In series [3] the test system is rice stem borers (Chilo suppressalis Walker). Put plainly: Mortality test with rice stem borers by topical application method. In kind it is in vivo. The following applies: for mortality at 0.001 mg: read-out: Pesticidal effect, rice stem borer. The protocol: Mortality test with rice stem borers (Chilo suppressalis Walker) by topical application method
Using a microsyringe, 0.5 μl of the above solution was applied to the thoracic abdominal region of each final-instar larva of rice stem borer (Chilo suppressalis Walker). […] The test larvae were used in groups of 20 individuals each.

For series [4], the system named is tobacco cutworms (Prodenia litura Fabricius). Put plainly: Mortality test with tobacco cutworms by topical application method. In kind it is in vivo. The procedure:
Mortality test with tobacco cutworms (Prodenia litura Fabricius) by topical application method
Using a microsyringe, 0.5 μl of the above solution was dripped onto the thoracic adbominal region of each of 3-instar tobacco cutworm (Prodenia litura Fabricius) larvae. […] The test larvae were used in groups of 20 individuals each.

Series [5] is described as follows: Fish toxicity test with carp. In kind it is in vivo, Cyprinus carpio L. The following applies: carp, water, 48 hrs., 21±1° C.; read-out: TLm, Carp (48 hrs.). The procedure: Fish toxicity test with carp (Cyprinus carpio L)
An acetone solution of one of the test compounds as mentioned in Table 10 and Tween-20 (the same surfactant as mentioned hereinbefore) was prepared. To 50 liters of water (30 cm deep) in a glass tank was added the above acetone solution. The mixture was stirred thoroughly to prepare an aqueous solution containing the test compound in a predetermined concentration. This was used as a test water. Five carps (Cyprinus carpio L) with a body weight of about 6 g and a body length of about 6 cm were released into each test water which was maintained at 21±1° C. After 48 hours, the test fish was examined for death. The TLm (median tolerance limit, ppm) was determined. The test water was moderately aerated.

The test system of the next series is carp and water flea. Nature of the series: Fish toxicity ranking according to Japanese regulations. Details: species or system Cyprinus carpio L; Daphnia pulex. The following applies: from TLm for carp and water flea. The procedure: The above ranking with symbols A, B and C were determined according to Japanese regulations relative to application of agricultural chemicals, and these symbols are defined as follows: […]
A: TLm (48 hrs.) value >10 ppm for carp and TLm (3 hrs.) value >0.5 ppm for water flea, wherein toxicity to fishes is not observed by usual application.
B: TLm (48 hrs.) value 10-0.5 ppm for carp; or TLm (48 hrs.) value >10 ppm for carp and TLm (3 hrs.) value <0.5 ppm for water flea, wherein appreciable toxicity to fishes is not observed by usual application but may be observed when applied to wide area at one time.
C: TLm (48 hrs.) value <0.5 ppm for carp, wherein toxicity to fishes is so strongly observed by usual application that both the application method and application area are strictly restricted.

Series [6] relates to tobacco cutworm (Prodenia litura). Put plainly: Utility Example-5: spray on soy bean leaves, tobacco cutworm larvae. Format: in vivo. The following applies: 48 h, 2 days. The protocol: An acetone solution of one of the test compounds as mentioned in Table 13 and Tween-20 (the same surfactant as mentioned hereinbefore) was prepared. This acetone solution was diluted with water to prepare a solution containing the test compound in a predetermined concentration. Leaves of soy bean in pots were sprayed with the above diluted solution at the rate of 20 ml/pot and, after one day, ten 3-instar larvae of tobacco cutworm (Prodenia litura) were released on the leaves. The pots were kept in a constant-temperature chamber at 25° C.

Series [7] relates to brown planthoppers (Nilaparvata lugens Stal). Put plainly: Utility Example-1: LC50 on adult brown planthoppers on dipped rice plants. In kind it is in vivo. Conditions: Nilaparvata lugens, 24 h, 25° C., read-out: Pesticidal activity LC50. The procedure: A 1% emulsifiable concentrate of each test compound as prepared by the procedure described in Formulation Example 2 was diluted with water to prepare a test solution of predetermined concentration.
Rice plants, 4 weeks after sowing (cultivated in a pot 6 cm in diameter, 7 seedlings) were dipped in the above solution and after allowing them to dry in the air, the pot was covered with a wire-mesh cage. Then, 30 adult brown planthoppers (Nilaparvata lugens Stal) were released into the cage and the pot was kept in a constant-temperature chamber at 25° C.

Series [8] can be described thus: Fish toxicity safety factor (TLm divided by maximum concentration in cover water). The arrangement: species or system carp. The following applies: in vivo, TLm / maximum concentration in cover water at LC50 application (100 l per 10 ares, 5 cm depth). The protocol: To further confirm the low toxicity to fish and high pesticidal activity of Compounds (1) and (2) according to this invention as evidenced by the fish toxicity tests with carps and the above tests, fish toxicity safety factors were calculated from the fish toxicity and pesticidal test data. These fish toxicity safety factors are indicators of safety to fish inhabiting a paddy field to which Compounds (1) and (2) may be actually applied for pest control purposes.
It is first assumed that such a pesticidal solution would normally be applied at the rate of 100 l per 10 ares of paddy field. It is also assumed that a solution (100 l) corresponding to the LC50 of the compounds would be applied to 10 ares of a paddy field carrying a cover water with a depth of 5 cm above ground surface and that all the solution would then find its way into the cover water. The expected maximum concentration of the compound in the cover water is then calculated. The fish toxicity safety factor of a pesticidal compound is defined as the value obtained by dividing the TLm (ppm) of the particular compound by the maximum concentration of the compound in cover water. The meaning of the value of the fish toxicity safety factor being one (1) is that the maximum concentration of the particular compound in cover water corresponds to the TLm of said compound. It is understood that when the pesticidal compound having a fish toxicity safety factor value of less than one (1) is applied to a paddy field, it has a risk of destroying the fish inhabiting there, and that the higher the safety factor value, the higher is the safety of the compound to fish.
This fish toxicity safety factor will now be explained in further detailed by taking the trans-isomer of Compound (2) of this invention as an example.
On the other hand, the toxicity to fish of this compound is TLm >10 ppm. Therefore, by dividing the TLm (i.e. >10 ppm) by the above cover water maximum concentration (i.e. 0.36 ppm), we obtain a fish toxicity safety factor of >28. Thus, the concentration of the trans-isomerof Compound (2) which kills 50% of pests corresponds to less than 1/28 of the concentration of the same isomer which kills 50% of fish. In other words, this means that the trans-isomer of Compound (2) is extremely safe to fish.

The mark [9] stands for this setting: 24 h, read-out: Pesticidal effect, tobacco cutworm.
The mark [10] stands for this setting: 1.0 μg/Larva, final-instar larva, 24 hours, read-out: % Mortality.
Where [11] appears, read: 10 μg/Larva, final-instar larva, 24 hours, read-out: % Mortality.
[12] abbreviates: 0.1 μg/Larva, 3-instar larvae, 24 hours, read-out: % Mortality.

Values after ≈ are worked out from the molar mass of the structure shown. Like-named read-outs stand apart in the source and are kept apart here.

The record followed here is US4389412A, “Substituted cyclopropanecarboxylic acid esters and pesticidal compositions containing the same as active ingredient” (priority 1979, dated 1983).

The LD50 is the dose at which mortality reaches 50%.

On to `Cc1ccc(Oc2cccc(COC(=O)C3C(C=C(Cl)Cl)C3(C)C)c2)cc1` (stereo not drawn), for which, in series [1], the mortality at 0.5 µg/female stood at 80% and the mortality at 1 µg/female stood at 100%.

In series [1], `CC1(C)C(C=C(Cl)Cl)C1C(=O)OCc1cccc(Oc2ccccc2Cl)c1` (stereo not drawn) registered a mortality at 0.5 µg/female of 30% and a mortality at 1 µg/female of 60%.

In [1], `CC1(C)C(C=C(Cl)Cl)C1C(=O)OCc1cccc(Oc2ccc(Cl)c(Cl)c2)c1` (stereo not drawn) had a mortality at 0.5 µg/female of 0% and a mortality at 1 µg/female of 20%.

In the case of `CC(C)=CC1C(C(=O)OCc2cccc(Oc3ccccc3)c2)C1(C)C` (stereo not drawn) [Compound (A), Phenothrin], in [2], the mortality at 0.01 µg/female amounted to 80%, the mortality at 0.1 µg/female came out at 100%, the mortality at 1 µg/female came out at 100% and the LD50 turned out to be 1.22 mg/kg. The mortality at 10 ng in series [2] was found to be 80%. In series [3] (24 h), the mortality at 1 µg/larva came to 45%, the mortality at 10 µg/larva amounted to 100% and the mortality at 0.001 mg is 45%. In [4] (24 h), this compound had a mortality at 0.0001 mg of 35%. The mortality at 0.0001 mg in [4] (setting [9]) stood at 35%. For the same compound, in series [1], the mortality at 0.5 µg/female was found to be 97%, the mortality at 1 µg/female is 100% and the mortality at 0.001 mg turned out to be 100%.

As for `CC1(C)C(C=C(Cl)Cl)C1C(=O)OC(C#N)c1cccc(Oc2ccc(Br)cc2)c1` (stereo not drawn) [Compound (H)], in series [2], the mortality at 0.01 µg/female is 100%, the mortality at 0.1 µg/female came out at 100%, the mortality at 1 µg/female is 100% and the mortality at 10 ng is 100%. Besides, in series [3] (24 h), the mortality at 1 µg/larva worked out at 90%, the mortality at 10 µg/larva was 100% and the mortality at 0.001 mg is 90%. Moreover, in series [4] (24 h), the mortality at 0.0001 mg turned out to be 60%. Also, the mortality at 0.0001 mg in series [4] (setting [9]) was found to be 60%. In addition, the LC50 at 48 h in series [5] stood at 0.063 µg/mL (≈ 0.127 µM). Moreover, the Ranking result in the series with carp and water flea was “C (TLm (48 hrs.) value <0.5 ppm for carp, wherein toxicity to fishes is so strongly observed by usual application that both the application method and application area are strictly restricted.)”. Besides, in [6], the mortality at 6.5 ppm stood at 40% and the mortality at 13 ppm came to 100%. In series [1], the mortality at 0.5 µg/female came to 100%, the mortality at 1 µg/female came out at 100% and the mortality at 0.001 mg came out at 100%.

Regarding `CC(C)C(C(=O)OC(C#N)c1cccc(Oc2ccc(Cl)cc2)c1)c1ccc(Cl)cc1` (stereo not drawn) [Compound (L)], in series [3] (setting [10]), the mortality at 1 µg/larva came to 85%. Further, the mortality at 10 µg/larva in series [3] (setting [11]) came out at 100%. Besides, the mortality at 0.0001 mg in series [4] (setting [12]) was 35%. In addition, the LC50 at 48 h in [5] was 0.032 µg/mL (≈ 0.0704 µM). Besides, in the series on carp and water flea, the Ranking result is “C (TLm (48 hrs.) value <0.5 ppm for carp, wherein toxicity to fishes is so strongly observed by usual application that both the application method and application area are strictly restricted.)”. In addition, in series [7], the LC50 stood at 2260 µg/mL (≈ 4970 µM). In addition, the selectivity ratio in [8] was found to be 0.0071.

As for `Cc1cccc(Oc2cccc(COC(=O)C3C(C=C(Cl)Cl)C3(C)C)c2)c1` (stereo not drawn), in series [1], the mortality at 0.5 µg/female was found to be 50% and the mortality at 1 µg/female is 80%.

In series [6], `CC1(C)C(C=C(Cl)Cl)C1C(=O)OCc1cccc(Oc2ccc(Br)cc2)c1` (stereo not drawn) had a mortality at 6.5 ppm of 10% and a mortality at 13 ppm of 100%.

`CCC(C)c1ccccc1OC(=O)NC` (stereo not drawn) [Bassa, o-sec-butylphenyl methylcarbamate]: the LD50 in [2] was 93.8 mg/kg.

In the case of `CC(C)C(C(=O)OCc1cccc(Oc2ccc(Cl)cc2)c1)c1ccc(Cl)cc1` (stereo not drawn) [Compound (J)], the mortality at 1 µg/larva in [3] (setting [10]) amounted to 15%. Moreover, the mortality at 10 µg/larva in series [3] (setting [11]) came to 90%. In series [4] (setting [12]), the mortality at 0.0001 mg is 0%.

In the case of `CC1(C)C(C=C(Cl)Cl)C1C(=O)OC(C#N)c1cccc(Oc2cc(Cl)cc(Cl)c2)c1` (stereo not drawn), in series [1], the mortality at 0.5 µg/female amounted to 0% and the mortality at 1 µg/female was 27%.

In series [6], `C#CC(OC(=O)C1C(C=C(Cl)Cl)C1(C)C)c1cccc(Oc2ccc(Br)cc2)c1` (stereo not drawn) came in with a mortality at 6.5 ppm of 0% and a mortality at 13 ppm of 90%.

With `Cc1ccc(Oc2cccc(C(C#N)OC(=O)C3C(C=C(Cl)Cl)C3(C)C)c2)cc1C` (stereo not drawn), in series [1], the mortality at 0.5 µg/female came out at 40% and the mortality at 1 µg/female was found to be 80%.

In [2], `C#CC(OC(=O)C(c1ccc(Cl)cc1)C(C)C)c1cccc(Oc2ccc(Cl)cc2)c1` (stereo not drawn) [Compound (K)] gave a mortality at 0.01 µg/female of 33%, a mortality at 0.1 µg/female of 100% and a mortality at 1 µg/female of 100%. The mortality at 0.0001 mg in series [4] (setting [12]) stood at 0%.

On to `CCOC(=O)CC(SP(=S)(OC)OC)C(=O)OCC` (stereo not drawn) [Malathion, malathion], for which the LD50 in [2] is 565 mg/kg.

`CC1(C)C(C=C(Cl)Cl)C1C(=O)OCc1cccc(Oc2ccc(Cl)cc2)c1` (stereo not drawn) [Compound (1) cis-/trans- = 30:70]: in series [2] (green rice leafhoppers, 1440 min), the “LD50 (median lethal dose)” value worked out at 0.85 µg/g.

For `CC1(C)C(C=C(Cl)Cl)C1C(=O)OCc1cccc(Oc2cccc(Cl)c2)c1` (stereo not drawn), in [1], the mortality at 0.5 µg/female was 60% and the mortality at 1 µg/female was 93%.

Take `CCOP(=S)(OCC)Oc1cc(C)nc(C(C)C)n1` [Diazinon, diazinon]: the LD50 in [2] was determined as 72.2 mg/kg.

As to `COP(=S)(OC)Oc1ccc([N+](=O)[O-])c(C)c1` [Fenitrothion, fenitrothion], in series [2], the LD50 is 4050 mg/kg.
